Laboratory results as given in patent publication US9290451B2 (Hoffmann-La Roche Inc., priority 2011, dated 2016).
Like-named read-outs stand apart in the source and are kept apart here.

Assays:
human CB2 receptors = human CB2 receptors (Homo sapiens (Human), UniProt P34972); assay: cAMP assay, CHO cells expressing human CB2 receptors; assay type: cell-based
Experimental: (§1) CHO cells expressing human CB1 or CB2 receptors are seeded 17-24 hours prior to the experiment 50.000 cells per well in a black 96 well plate with flat clear bottom (Corning Costar #3904) in DMEM (Invitrogen No. 31331), 1×HT supplement, with 10% fetal calf serum and incubated at 5% CO2 and 37° C. in a humidified incubator. The growth medium was exchanged with Krebs Ringer Bicarbonate buffer with 1 mM IBMX and incubated at 30° C. for 30 min Compounds were added to a final assay volume of 100 μl and incubated for 30 min at 30° C. Using the cAMP-Nano-TRF detection kit the assay (Roche Diagnostics) was stopped by the addition of 50 μl lysis reagent (Tris, NaCl, 1.5% Triton X100, 2.5% NP40, 10% NaN3) and 50 μl detection solutions (20 μM mAb Alexa700-cAMP 1:1, and 48 μM Ruthenium-2-AHA-cAMP) and shaken for 2 h at room temperature. The time-resolved energy transfer is measured by a TRF reader (Evotec Technologies GmbH), equipped with a ND:YAG laser as excitation source. The plate is measured twice with the excitation at 355 nm and at the emission with a delay of 100 ns and a gate of 100 ns, total exposure time 10 s at 730 (bandwidth 30 nm) or 645 nm (bandwidth 75 nm), respectively. The FRET signal is calculated as follows: FRET=T730-Alexa730-P(T645-B645) with P═Ru730-B730/Ru645-B645, where T730 is the test well measured at […], T645 is the test well measured at 645 nm, B730 and B645 are the buffer controls at 730 nm and 645 nm, respectively. cAMP content is determined from the function of a standard curve spanning from 10 μM to 0.13 nM cAMP.
(§2) EC50 values were determined using Activity Base analysis (ID Business Solution, Limited). The EC50 values for a wide range of cannabinoid agonists generated from this assay for reference compounds were in agreement with the values published in the scientific literature.

human CB1 receptors = human CB1 receptors (Homo sapiens (Human), UniProt P21554); assay: cAMP assay, CHO cells expressing human CB1 receptors; assay type: cell-based; details: CHO cells expressing human CB1, cAMP; read-out: human CB1 EC50
Experimental: as §1, §2

[1] = CHO cells expressing human CB2, cAMP, read-out: human CB2 EC50

Sequence of human CB2 receptors (P34972 whole entry): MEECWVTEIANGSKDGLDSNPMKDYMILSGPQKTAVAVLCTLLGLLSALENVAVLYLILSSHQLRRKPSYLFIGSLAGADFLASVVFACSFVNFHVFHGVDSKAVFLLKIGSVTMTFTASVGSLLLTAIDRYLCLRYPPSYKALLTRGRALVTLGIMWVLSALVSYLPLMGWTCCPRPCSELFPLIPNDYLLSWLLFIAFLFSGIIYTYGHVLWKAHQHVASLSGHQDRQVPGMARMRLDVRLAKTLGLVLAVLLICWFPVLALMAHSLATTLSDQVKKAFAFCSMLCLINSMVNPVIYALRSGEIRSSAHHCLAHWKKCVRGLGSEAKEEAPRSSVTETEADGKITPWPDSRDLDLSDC
Sequence of human CB1 receptors (P21554 whole entry): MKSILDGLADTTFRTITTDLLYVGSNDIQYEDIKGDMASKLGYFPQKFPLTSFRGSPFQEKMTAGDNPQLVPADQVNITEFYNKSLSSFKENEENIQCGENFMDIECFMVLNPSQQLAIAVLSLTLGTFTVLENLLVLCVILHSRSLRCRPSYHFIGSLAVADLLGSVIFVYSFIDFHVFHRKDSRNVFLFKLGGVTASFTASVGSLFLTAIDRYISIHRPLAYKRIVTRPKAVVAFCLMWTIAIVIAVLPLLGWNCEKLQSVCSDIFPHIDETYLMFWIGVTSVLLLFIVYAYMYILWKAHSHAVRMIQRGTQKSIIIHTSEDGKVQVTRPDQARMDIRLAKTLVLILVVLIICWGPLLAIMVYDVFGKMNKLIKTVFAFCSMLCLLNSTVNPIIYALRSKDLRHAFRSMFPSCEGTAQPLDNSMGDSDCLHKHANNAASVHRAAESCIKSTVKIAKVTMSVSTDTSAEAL

For `CC(C)(CCS(C)(=O)=O)NC(=O)c1ccc(C2CC2)c(OCC2CC2)n1` [Example 349, 5-Cyclopropyl-6-cyclopropylmethoxy-pyridine-2-carboxylic acid (3-methanesulfonyl-1,1-dimethyl-propyl)-amide], the EC50 (human CB2 receptors; [1]) was 477 nM and the EC50 (human CB1 receptors) was over 10000 nM.

Compound `CC(C)(NC(=O)c1ccc(Cl)c(-c2cccc(Cl)c2)n1)c1nccs1` [Example 58, 5-Chloro-6-(3-chloro-phenyl)-pyridine-2-carboxylic acid (1-methyl-1-thiazol-2-yl-ethyl)-amide] has an EC50 (human CB2 receptors; [1]) of 104 nM and an EC50 (human CB1 receptors) of 1110 nM.

Work on `CC(C)(NC(=O)c1ccc(C2CCCO2)c(-c2cccc(Cl)c2)n1)c1ncco1` (centres unmarked) [Example 126, 6-(3-Chloro-phenyl)-5-(tetrahydro-furan-2-yl)-pyridine-2-carboxylic acid (1-methyl-1-oxazol-2-yl-ethyl)-amide] yielded an EC50 (human CB2 receptors; [1]) of 240 nM and an EC50 (human CB1 receptors) of over 10000 nM.

`COC(=O)[C@H](CC(C)C)NC(=O)c1ccc(C2CC2)c(OCC2CC2)n1` [Example 270, (S)-2-[(5-Cyclopropyl-6-cyclopropylmethoxy-pyridine-2-carbonyl)-amino]-4-methyl-pentanoic acid methyl ester] was tested, and the EC50 (human CB2 receptors; [1]) was 1.3 nM and the EC50 (human CB1 receptors) was 91.4 nM.

`CC(C)(NC(=O)c1cccc(-c2cccc(Cl)c2)n1)c1nccs1` [Example 12, 6-(3-Chloro-phenyl)-pyridine-2-carboxylic acid (1-methyl-1-thiazol-2-yl-ethyl)-amide] gave an EC50 (human CB2 receptors; [1]) of 105 nM and an EC50 (human CB1 receptors) of over 10000 nM.

`CC1(COc2nc(C(=O)NC(C)(C)c3nccs3)ccc2Br)COC1` [Example 280, 5-Bromo-6-(3-methyl-oxetan-3-ylmethoxy)-pyridine-2-carboxylic acid (1-methyl-1-thiazol-2-yl-ethyl)-amide] gave an EC50 (human CB2 receptors; [1]) of 118 nM and an EC50 (human CB1 receptors) of 1490 nM.

Work on `CCC(CC)(CO)NC(=O)c1cccc(-c2cccc(Cl)c2)n1` [Example 29, 6-(3-Chloro-phenyl)-pyridine-2-carboxylic acid (1-ethyl-1-hydroxymethyl-propyl)-amide] yielded an EC50 (human CB2 receptors; [1]) of 324 nM and an EC50 (human CB1 receptors) of over 10000 nM.

In the case of `COC(=O)C(C)(C)NC(=O)c1ccc(-c2cc[nH]n2)c(OCC2CC2)n1` [Example 13, 2-{[6-Cyclopropylmethoxy-5-(1H-pyrazol-3-yl)-pyridine-2-carbonyl]-amino}-2-methyl-propionic acid methyl ester], the EC50 (human CB2 receptors; [1]) is reported as 426 nM and the EC50 (human CB1 receptors) is reported as over 10000 nM.

`O=C(Nc1ccccc1)c1cccc(-c2cccc(Cl)c2)n1` [Example 19, 6-(3-Chloro-phenyl)-pyridine-2-carboxylic acid phenylamide] showed an EC50 (human CB2 receptors; [1]) of 415 nM and an EC50 (human CB1 receptors) of over 10000 nM.

With `CNC(=O)[C@H](CC(C)(C)C)NC(=O)c1ccc(C2CC2)c(OCC2CCOCC2)n1` [Example 196, (S)-5-Cyclopropyl-N-(4,4-dimethyl-1-(methylamino)-1-oxopentan-2-yl)-6-((tetrahydro-2H-pyran-4-yl)methoxy)picolinamide] the EC50 (human CB2 receptors; [1]) was 10.3 nM and the EC50 (human CB1 receptors) was over 10000 nM.

`CC(C)C[C@H](NC(=O)c1ccc(N2CC(F)(F)C2)c(OCC2CC2)n1)C(=O)N1CC(F)(F)C1` [Example 311, 6-Cyclopropylmethoxy-5-(3,3-difluoro-azetidin-1-yl)-pyridine-2-carboxylic acid [(S)-1-(3,3-difluoro-azetidine-1-carbonyl)-3-methyl-butyl]-amide] gave an EC50 (human CB2 receptors; [1]) of 8.4 nM and an EC50 (human CB1 receptors) of over 10000 nM.

`CNC(=O)C(C)(C)NC(=O)c1ccc(C2CC2)c(OCC2CC2)n1` [Example 43, 5-Cyclopropyl-6-cyclopropylmethoxy-pyridine-2-carboxylic acid (1-methyl-1-methylcarbamoyl-ethyl)-amide] was tested, and the EC50 (human CB2 receptors; [1]) was 275 nM and the EC50 (human CB1 receptors) was over 10000 nM.

`COc1ccc(C(=O)NC(C)(C)c2nccs2)nc1-c1cccc(Cl)c1` [Example 82, 6-(3-Chloro-phenyl)-5-methoxy-pyridine-2-carboxylic acid (1-methyl-1-thiazol-2-yl-ethyl)-amide] was tested, and the EC50 (human CB2 receptors; [1]) was 140 nM and the EC50 (human CB1 receptors) was 2290 nM.

`NC(=O)[C@H](CC1CC1)NC(=O)c1ccc(C(F)(F)F)c(OCC2CC2)n1` [Example 113, 6-Cyclopropylmethoxy-5-trifluoromethyl-pyridine-2-carboxylic acid ((S)-1-carbamoyl-2-cyclopropyl-ethyl)-amide] gave an EC50 (human CB2 receptors; [1]) of 200 nM and an EC50 (human CB1 receptors) of over 10000 nM.

`O=C(N[C@@H](c1cccnc1)C(F)(F)F)c1ccc(C2CC2)c(OCC2CC2)n1` [Example 217, (S)-5-Cyclopropyl-6-(cyclopropylmethoxy)-N-(2,2,2-trifluoro-1-(pyridin-3-yl)ethyl)-picolinamide] showed an EC50 (human CB2 receptors; [1]) of 41.1 nM and an EC50 (human CB1 receptors) of over 10000 nM.

In the case of `NC(=O)[C@H](CC1CC1)NC(=O)c1ccc(C2CCCC2)c(OCC2CC2)n1` [Example 107, 5-Cyclopentyl-6-cyclopropylmethoxy-pyridine-2-carboxylic acid ((S)-1-carbamoyl-2-cyclopropyl-ethyl)-amide], the EC50 (human CB2 receptors; [1]) is reported as 10.7 nM and the EC50 (human CB1 receptors) is reported as 1460 nM.

Work on `CC(C)(CCN1CCOCC1)NC(=O)c1ccc(N2CCCC2)c(OCC2CC2)n1` [Example 35, 6-Cyclopropylmethoxy-5-pyrrolidin-1-yl-pyridine-2-carboxylic acid (1,1-dimethyl-3-morpholin-4-yl-propyl)-amide] yielded an EC50 (human CB2 receptors; [1]) of 7.1 nM and an EC50 (human CB1 receptors) of over 10000 nM.

`Cc1nc(C(NC(=O)c2cccc(-c3ccc(F)c(Cl)c3)n2)C2CC2)no1` (racemic) [Example 232, 6-(3-Chloro-4-fluoro-phenyl)-pyridine-2-carboxylic acid [cyclopropyl-(5-methyl-[1,2,4]oxadiazol-3-yl)-methyl]-amide] was tested, and the EC50 (human CB2 receptors; [1]) was 15 nM and the EC50 (human CB1 receptors) was 1630 nM.

Work on `CNC(=O)[C@@H](NC(=O)c1ccc(C2CC2)c(OCC2CC2)n1)c1ccccc1` [Example 225, 5-Cyclopropyl-6-cyclopropylmethoxy-pyridine-2-carboxylic acid ((−)-methylcarbamoyl-phenyl-methyl)-amide] yielded an EC50 (human CB2 receptors; [1]) of 48.4 nM and an EC50 (human CB1 receptors) of over 10000 nM.

`CC(C)(CO)NC(=O)c1ccc(C2CCOC2)c(OCC2CC2)n1` (centres unmarked) [Example 141, 6-Cyclopropylmethoxy-5-(tetrahydro-furan-3-yl)-pyridine-2-carboxylic acid (2-hydroxy-1,1-dimethyl-ethyl)-amide] showed an EC50 (human CB2 receptors; [1]) of 459 nM and an EC50 (human CB1 receptors) of over 10000 nM.

`NC(=O)[C@@H](NC(=O)c1ccc(C2CC2)c(OCC(F)(F)F)n1)c1ccccc1` [Example 301, 5-Cyclopropyl-6-(2,2,2-trifluoro-ethoxy)-pyridine-2-carboxylic acid ((S)-carbamoyl-phenyl-methyl)-amide] was tested, and the EC50 (human CB2 receptors; [1]) was 130 nM and the EC50 (human CB1 receptors) was over 10000 nM.

`Cc1nc([C@H](CC(C)C)NC(=O)c2cccc(C(O)c3ccc(F)cc3)n2)no1` (stereo partly drawn) [Example 318, 6-[(4-Fluoro-phenyl)-hydroxy-methyl]-pyridine-2-carboxylic acid [(S)-3-methyl-1-(5-methyl-[1,2,4]oxadiazol-3-yl)-butyl]-amide] gave an EC50 (human CB2 receptors; [1]) of 25.1 nM and an EC50 (human CB1 receptors) of over 10000 nM.

For `Cc1ccc(C(=O)NC(C)(C)c2nccs2)nc1-c1cccc(Cl)c1` [Example 50, 6-(3-Chloro-phenyl)-5-methyl-pyridine-2-carboxylic acid (1-methyl-1-thiazol-2-yl-ethyl)-amide], the EC50 (human CB2 receptors; [1]) was 133 nM and the EC50 (human CB1 receptors) was 1490 nM.

Work on `COC(=O)C(C)(C)NC(=O)c1cccc(-c2cccc(Cl)c2)n1` [Example 1, Methyl 2-(6-(3-chlorophenyl)picolinamido)-2-methylpropanoate] yielded an EC50 (human CB2 receptors; [1]) of 68.5 nM.

Work on `O=C(N[C@@H](CC1CC1)C(=O)NN1CCC(O)C1)c1ccc(C2CC2)c(OCC2CC2)n1` (single isomer, unassigned; (+)) [Example 379] yielded an EC50 (human CB2 receptors) of 26.4 nM.

In the case of `COC(=O)C(C)(C)NC(=O)c1ccc(C2CC2)c(Nc2ccc(Cl)cc2Cl)n1` [Example 5, Methyl 2-(5-cyclopropyl-6-(2,4-dichlorophenylamino)picolinamido)-2-methylpropanoate], the EC50 (human CB2 receptors; [1]) is reported as 434 nM.

`COC(=O)C(C)(C)NC(=O)c1cccc(-c2ccccc2Cl)n1` [Example 2, Methyl 2-(6-(2-chlorophenyl)picolinamido)-2-methylpropanoate] showed an EC50 (human CB2 receptors; [1]) of 57.7 nM.

For `COC(=O)C(C)(C)NC(=O)c1ccc(C)c(Nc2ccc(Cl)cc2Cl)n1` [Example 6, Methyl 2-(6-(2,4-dichlorophenylamino)-5-methylpicolinamido)-2-methylpropanoate], the EC50 (human CB2 receptors; [1]) was 376 nM.

`COC(=O)C(C)(C)NC(=O)c1cccc(C2CCCCC2)n1` [Example 7, 2-[(6-Cyclohexyl-pyridine-2-carbonyl)-amino]-2-methyl-propionic acid methyl ester] showed an EC50 (human CB2 receptors; [1]) of 32.1 nM.

In the case of `COC(=O)C(C)(C)NC(=O)c1ccc(C)c(OCC(F)(F)F)n1` [Example 4, Methyl 2-methyl-2-(5-methyl-6-(2,2,2-trifluoroethoxy)picolinamido)propanoate], the EC50 (human CB2 receptors; [1]) is reported as 77.2 nM.
